Values of other authors, collected in patent US10413588B2, “Probiotic function of human intelectin” (Wisconsin Alumni Research Foundation, priority 2015, dated 2019).

Target: hIntL-1 (Homo sapiens, UniProt Q8WWA0)
Details: reported by Tsuji et al., 2001; read-out: apparent KD / apparent affinity for hIntL-1

hIntL-1, sequence (Q8WWA0 19-298): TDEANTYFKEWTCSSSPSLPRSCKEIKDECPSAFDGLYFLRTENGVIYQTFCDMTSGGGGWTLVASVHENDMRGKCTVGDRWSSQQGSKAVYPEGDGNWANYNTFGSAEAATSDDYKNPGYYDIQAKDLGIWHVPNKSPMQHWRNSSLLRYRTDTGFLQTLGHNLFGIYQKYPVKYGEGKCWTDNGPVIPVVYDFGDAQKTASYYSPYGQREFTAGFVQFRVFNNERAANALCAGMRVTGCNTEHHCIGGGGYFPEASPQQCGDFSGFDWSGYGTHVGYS

Kd: 5 mM
SMILES: O=C[C@H](O)[C@H](O)[C@H](O)CO [D-ribose]
